Test results: patent publication US10766902B2, “Wee-1 inhibiting pyrazolopyrimidinone compounds” (ALMAC DISCOVERY LIMITED, priority 2016, dated 2020)
Like-named read-outs stand apart in the source and are kept apart here.

Tests used:
[1] = system: phosphorylation of Cdc2 at Tyr15; assay: ELISA for phosphorylation of Cdc2 at Tyr15 in HT-29 / HCT-116 cells; type: cell-based; conditions: Homo sapiens
Description: Method 2: Determining the Effect of Compounds on the Phosphorylation of Cdc2 at Tyr15
The colorectal cancer cell lines HT-29 and HCT-116 were purchased from the ATCC and routinely maintained in McCoy's Medium (Invitrogen) supplemented with 10% Foetal Calf Serum.
The cells were trypsinised from their growing vessel and counted, 100 μL of cell suspension containing 6000 cells was pipetted into black 96 well Co-star plates and incubated overnight to allow adherence to the surface at a temperature of 37° C. and an atmosphere of 5% CO2. Test compounds were formulated in DMSO and diluted in foetal calf serum supplemented medium. Incubating medium was removed by aspiration and diluted drug supplemented medium added to each well.
The plate was returned to the incubator for an additional eight hours at 37° C. and an atmosphere of 5% CO2. Post incubation, the drug supplemented medium was aspirated from each well and the cells were washed once in ice-cold phosphate buffered saline (PBS). 100 μL of cell lysis buffer (Cell Signalling Technologies #9803) containing 20 mM Tris, 150 mM NaCl, 1 mM EDTA, 1 mM EGTA, 1% Triton-X100, 2.5 mM sodium pyrophosphate, 1 mM glycerophosphate, 1 mM Na3VO4 and 1 μg/mL leupeptin was added to each well of the 96 well plate and incubated at 4° C. for 30 min. The samples on the plate were snap frozen at −80° C. until required. Immediately before the continuation of the assay, the sample plate was thawed and centrifuged at 4° C. for 10 min and the supernatant transferred to secondary tubes or 96 well plate.
Cell supernatant was mixed in a ratio of 1:1 with sample dilutent buffer and vortexed for one minute. 100 μL of diluted sample was pipetted into pre-coated plates containing a rabbit polyclonal antibody for phospho-cdc2 (Tyr15) (Cell Signalling Technologies PathScan kit #7176). The plate was sealed and incubated overnight at 4° C.
The plate seal was removed and the well contents aspirated, followed by 3×5 min washes with 200 μL of diluted wash buffer. Between each wash the plate was tapped firmly onto blotting paper to ensure the removal of all kit solution. 100 μL of kit detection antibody was added to each well and the plate re-sealed and incubated at 37° C. for 1 h. Post incubation the plate was washed and processed in a similar manner to that previously described.
100 μL of horseradish peroxidise-linked secondary antibody was added to each test well, the plate sealed and incubated for thirty minutes at 37° C. Post incubation, the plate was washed as previously stated, followed by the addition of 100 μL of 3,3′,5,5′ tetramethylbenzidine (TMB reagent). The plate was sealed and incubated at RT for 30 min.
100 μL of stop solution was added to each well and the underside of the plate wiped with a lint-free tissue, prior to spectrophotometric determination. Absorbance from each well was read at 450 nm within 30 min of the addition of the stop solution.
The percentage of phospho-cdc2 was calculated compared to DMSO control and plotted versus the concentration of inhibitor using GraphPad Prism. Data was fitted using non-linear regression analysis and IC50 values generated.

Wee-1 kinase = Wee-1 kinase (Homo sapiens (Human), UniProt P30291); assay: Measurement of Wee-1 kinase activity (ADP-Glo luminescence); type: biochemical
Method in brief: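 Activated Wee-1 preincubated 30 min at RT with compound in Tris/MgCl2 buffer with BSA and DTT, then reacted 1 h at RT with poly(Lys,Tyr 4:1) (2.0 μg/mL) and 30 μM ATP as added aliquot. ADP formed measured by ADP-Glo luminescence; IC50 by non-linear regression of % inhibition.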

A498 cells = assay: Cell viability (CellTiter-Glo), A498; type: cell-based; conditions: Homo sapiens, A498, 144 h; cell viability after 6 days
Description: (§1) All cell lines (HT29, A427, A498, SKLU-1) were obtained from the American Type Culture Collection (ATCC), maintained in the recommended media supplemented with 10% (v/v) FBS, 1% (v/v) Penicillin/streptomycin and kept at 37° C. in a humidified atmosphere with 5% CO2. Cells were seeded in 96 wp format typically at a seeding density of 3500-5000 cells/well and treated after 24 hours with increasing concentration of compound from 0 to 100 μM in ½ log unit increments. Cell viability was assessed after 72 hours (HT29, A427) or after 6 days (SKLU-1, A498) by CellTiter-Glo® as recommended by the manufacturer's instructions (Promega). Analysis and EC50 values were derived using GraphPadPrism.

SK-LU-1 cells = assay: Cell viability (CellTiter-Glo), SK-LU-1; type: cell-based; conditions: Homo sapiens, SK-LU-1, 144 h; cell viability after 6 days
Description: as §1

A427 cells = assay: Cell viability (CellTiter-Glo), A427; type: cell-based; conditions: Homo sapiens, A-427; cell viability after 72 hours
Description: as §1

HT29 cells = assay: Cell viability (CellTiter-Glo), HT29; type: cell-based; conditions: Homo sapiens, HT-29; cell viability after 72 hours
Description: as §1

[2] = 8 h, Table 2, colorectal cancer cells, eight hours incubation, read-out: ELISA p-CDC2 EC50
[3] = Table 7, data obtained as described in the experimental section of the current invention, read-out: Wee-1/nM
[4] = Table 3, read-out: ELISA p-CDC2 EC50

Chain of Wee-1 kinase (P30291 whole entry): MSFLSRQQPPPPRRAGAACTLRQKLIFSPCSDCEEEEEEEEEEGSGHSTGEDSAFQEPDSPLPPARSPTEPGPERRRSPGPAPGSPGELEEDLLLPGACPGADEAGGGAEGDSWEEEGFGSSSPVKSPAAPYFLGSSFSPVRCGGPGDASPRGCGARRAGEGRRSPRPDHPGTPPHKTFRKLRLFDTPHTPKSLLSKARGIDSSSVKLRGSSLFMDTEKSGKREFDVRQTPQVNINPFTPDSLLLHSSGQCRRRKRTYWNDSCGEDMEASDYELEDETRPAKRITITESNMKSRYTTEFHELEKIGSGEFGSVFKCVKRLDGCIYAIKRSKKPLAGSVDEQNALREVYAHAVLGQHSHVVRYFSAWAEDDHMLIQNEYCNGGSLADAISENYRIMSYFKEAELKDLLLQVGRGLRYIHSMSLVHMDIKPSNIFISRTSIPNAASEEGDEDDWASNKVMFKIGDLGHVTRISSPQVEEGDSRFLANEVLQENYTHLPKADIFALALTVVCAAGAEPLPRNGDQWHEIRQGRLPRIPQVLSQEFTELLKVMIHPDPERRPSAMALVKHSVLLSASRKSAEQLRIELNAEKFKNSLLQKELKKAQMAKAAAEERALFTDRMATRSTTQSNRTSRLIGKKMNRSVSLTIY

SMILES | EC50 [1, 2] | IC50 (Wee-1 kinase; read-out: Wee1 IC50) | also measured
C=CCn1c(=O)c2cnc(Nc3ccc(N(C)C)cc3)nc2n1-c1cccc(N=S(C)(C)=O)n1 [Example 57, 1-(6-{[Dimethyl(oxo)-λ^6-sulfanylidene]amino}pyridin-2-yl)-6-{[4-(dimethylamino)phenyl]amino}-2-(prop-2-en-1-yl)-1H,2H,3H-pyrazolo[3,4-d]pyrimidin-3-one] | 6 nM | 0.2 nM | IC50 (Wee-1 kinase; [3]): 0.2 nM
CC(C)n1c(=O)c2cnc(Nc3ccc(N4CCN(C)CC4)cc3)nc2n1-c1cccc(N=S(C)(C)=O)n1 [Example 20, 1-(6-{[Dimethyl(oxo)-λ^6-sulfanylidene]amino}pyridin-2-yl)-6-{[4-(4-methylpiperazin-1-yl)phenyl]amino}-2-(propan-2-yl)-1H,2H,3H-pyrazolo[3,4-d]pyrimidin-3-one] | 47 nM | 1.4 nM | EC50 ([1]; Table 6, Present Invention, read-out: ELISA/nM): 47 nM; IC50 (Wee-1 kinase; Table 6, Present Invention, read-out: Wee-1/nM): 1.4 nM
C=CCn1c(=O)c2cnc(Nc3ccc(N4CCOCC4)c(C)c3)nc2n1-c1cccc(N=S(C)(C)=O)n1 [Example 21, 1-(6-{[Dimethyl(oxo)-λ^6-sulfanylidene]amino}pyridin-2-yl)-6-{[3-methyl-4-(morpholin-4-yl)phenyl]amino}-2-(prop-2-en-1-yl)-1H,2H,3H-pyrazolo[3,4-d]pyrimidin-3-one] | 2 nM | 0.1 nM | 
C=CCn1c(=O)c2cnc(Nc3ccc(N4CCOCC4)cc3)nc2n1-c1cccc(N=S(C)(C)=O)n1 [Example 12, 1-(6-{[Dimethyl(oxo)-λ^6-sulfanylidene]amino}pyridine-2-yl)-6-{[4-(morpholin-4-yl)phenyl]amino}-2-(prop-2-en-1-yl)-1H,2H,3H-pyrazolo[3,4-d]pyrimidin-3-one] | 26 nM | 0.5 nM | EC50 (A498 cells): 27 nM; EC50 (SK-LU-1 cells): 30 nM; EC50 (A427 cells): 27 nM; EC50 [1, 4]: 26 nM; IC50 (Wee-1 kinase; [3]): 0.5 nM; EC50 (HT29 cells): 27 nM
C=CCn1c(=O)c2cnc(Nc3ccc(N4CCNCC4)c(Cl)c3)nc2n1-c1cccc(N=S(C)(C)=O)n1 [Example 14, 6-{[3-Chloro-4-(piperazin-1-yl)phenyl]amino}-1-(6-{[dimethyl(oxo)-λ^6-sulfanylidene]amino}pyridine-2-yl)-2-(prop-2-en-1-yl)-1H,2H,3H-pyrazolo[3,4-d]pyrimidin-3-one] | 5 nM | 0.8 nM | 
C=CCn1c(=O)c2cnc(Nc3ccc(N4CCN[C@H](COC)C4)cc3)nc2n1-c1cccc(N=S(C)(C)=O)n1 [Example 76, 1-(6-{[Dimethyl(oxo)-λ^6-sulfanylidene]amino}pyridin-2-yl)-6-({4-[(3S)-3-(methoxymethyl)piperazin-1-yl]phenyl}amino)-2-(prop-2-en-1-yl)-1H,2H, 3H-pyrazolo[3,4-d]pyrimidin-3-one] | 28 nM | 0.6 nM | 
C=CCn1c(=O)c2cnc(Nc3ccc(N4C[C@H]5COC[C@H]5C4)cc3)nc2n1-c1cccc(N=S(C)(C)=O)n1 [Example 67, 6-({4-[(3aR,6aS)-Hexahydro-1H-furo[3,4-c]pyrrol-5-yl]phenyl}amino)-1-(6-{[dimethyl(oxo)-λ^6-sulfanylidene]amino}pyridin-2-yl)-2-(prop-2-en-1-yl)-1H,2H, 3H-pyrazolo[3,4-d]pyrimidin-3-one] | 7 nM | 0.1 nM | 
C=CCn1c(=O)c2cnc(Nc3ccc(N4CCNCC4)c(C)c3)nc2n1-c1cccc(N=S(C)(C)=O)n1 [Example 26, 1-(6-{[Dimethyl(oxo)-λ^6-sulfanylidene]amino}pyridin-2-yl)-6-{[3-methyl-4-(piperazin-1-yl)phenyl]amino}-2-(prop-2-en-1-yl)-1H,2H,3H-pyrazolo[3,4-d]pyrimidin-3-one] | 4 nM | 0.4 nM | 
C=CCn1c(=O)c2cnc(Nc3ccc(N4CCN(C(C)C)CC4)cc3)nc2n1-c1cccc(N=S(C)(C)=O)n1 [Example 7, 1-(6-{[Dimethyl(oxo)-λ^6-sulfanylidene]amino}pyridine-2-yl)-2-(prop-2-en-1-yl)-6-({4-[4-(propan-2-yl)piperazin-1-yl]phenyl}amino)-1H,2H,3H-pyrazolo[3,4-d]pyrimidin-3-one] | 9 nM | 0.7 nM | 
C=CCn1c(=O)c2cnc(Nc3ccc(N4CCO[C@H](COC)C4)cc3)nc2n1-c1cccc(N=S(C)(C)=O)n1 [Example 54, 1-(6-{[Dimethyl(oxo)-λ^6-sulfanylidene]amino}pyridin-2-yl)-6-({4-[(2S)-2-(methoxymethyl)morpholin-4-yl]phenyl}amino)-2-(prop-2-en-1-yl)-1H,2H,3H-pyrazolo[3,4-d]pyrimidin-3-one] | 5 nM | 0.3 nM | EC50 (A498 cells): 16 nM; EC50 (SK-LU-1 cells): 35 nM; EC50 (A427 cells): 17 nM; EC50 [1, 4]: 5 nM; EC50 (HT29 cells): 32 nM
CC(C)n1c(=O)c2cnc(Nc3ccc(C(F)(F)F)cc3)nc2n1-c1cccc(N=S(C)(C)=O)n1 [Example 72, 1-(6-{[Dimethyl(oxo)-λ^6-sulfanylidene]amino}pyridin-2-yl)-2-(propan-2-yl)-6-{[4-(trifluoromethyl)phenyl]amino}-1H,2H,3H-pyrazolo[3,4-d]pyrimidin-3-one] |  | 19 nM | 
C=CCn1c(=O)c2cnc(Nc3ccc4c(c3)CN(C)CC43CC3)nc2n1-c1cccc(N=S(C)(C)=O)n1 [Example 15, 1-(6-{[Dimethyl(oxo)-λ^6-sulfanylidene]amino}pyridine-2-yl)-6-({2′-methyl-2′,3′-dihydro-1′H-spiro[cyclopropane-1,4′-isoquinoline]-7′-yl}amino)-2-(prop-2-en-1-yl)-1H,2H,3H-pyrazolo[3,4-d]pyrimidin-3-one] |  | 0.9 nM | 
C=CCn1c(=O)c2cnc(Nc3ccc(N4CCC(F)(F)CC4)cc3)nc2n1-c1cccc(N=S(C)(C)=O)n1 [Example 34, 1-(6-{[Dimethyl(oxo)-λ^6-sulfanylidene]amino}pyridin-2-yl)-6-{[4-(4,4-difluoropiperidin-1-yl)phenyl]amino}-2-(prop-2-en-1-yl)-1H,2H,3H-pyrazolo[3,4-d]pyrimidin-3-one] |  | 4.6 nM | 
CC(C)n1c(=O)c2cnc(NC3CCC3)nc2n1-c1cccc(N=S(C)(C)=O)n1 [Example 47, 6-(Cyclobutylamino)-1-(6-{[dimethyl(oxo)-λ^6-sulfanylidene]amino}pyridin-2-yl)-2-(propan-2-yl)-1H,2H,3H-pyrazolo[3,4-d]pyrimidin-3-one] |  | 67 nM | 
C=CCn1c(=O)c2cnc(Nc3cnn(C)c3)nc2n1-c1cccc(N=S(C)(C)=O)n1 [Example 37, 1-(6-{[Dimethyl(oxo)-λ^6-sulfanylidene]amino}pyridin-2-yl)-6-[(1-methyl-1H-pyrazol-4-yl)amino]-2-(prop-2-en-1-yl)-1H,2H,3H-pyrazolo[3,4-d]pyrimidin-3-one] |  | 1.3 nM | 
